In ChEMBL document CHEMBL5120861, “Short peptide pharmacophores developed from protein phosphatase-1 disrupting peptides (PDPs)” (Bioorg Med Chem, 2022):
Calls of active or inactive are those of the source. No cut-off for these calls is given here. Where a SMILES comes first, the peptide text is derived from it. [ ]: non-standard residue; d: D form. 1Nal = N[C@@H](Cc1cccc2ccccc12)C(=O)O; 2Nal = N[C@@H](Cc1ccc2ccccc2c1)C(=O)O; NMeF = CN[C@@H](Cc1ccccc1)C(=O)O; hArg = N=C(N)NCCCC[C@H](N)C(=O)O; β3hR = N=C(N)NCCC[C@H](N)CC(=O)O; Cha = N[C@@H](CC1CCCCC1)C(=O)O; β3hK = NCCCC[C@H](N)CC(=O)O

Species: Homo sapiens
Experiment: (§1) Disruption of PP1 holoenzyme (unknown origin) interaction with protein inhibitor 2 assessed as increase in PP1 phosphatase activity by measuring increase in fluorescence using DiFMUP as substrate at 500 uM enzyme preincubated with I2 for ten mins followed by compound treatment for 20 mins followed by substrate addition by fluorescence based analysis

**Q.** With CC(C)[C@H](NC(=O)[C@@H](NC(=O)[C@@H](N)CCCNC(=N)N)C(C)C)C(=O)N[C@@H](Cc1ccccc1)C(=O)O (H-RVVF-OH) as the compound, how does the Activity read?
**A.** Its Activity is “Active”.

**Q.** Which Activity does the source give for CC(C)[C@H](NC(=O)[C@@H](N)CCCNC(=N)N)C(=O)N[C@@H](CCC(=O)O)C(=O)N[C@@H](Cc1ccccc1)C(=O)O (H-RVEF-OH) here?
**A.** Its Activity is “Active”.

**Q.** Which Activity does the source give for CC(C)[C@H](NC(=O)[C@@H](N)CCCNC(=N)N)C(=O)NCC(=O)N[C@@H](Cc1ccccc1)C(=O)O (H-RVGF-OH) here?
**A.** The Activity was “Active”.

Target: not listed separately
Experiment: as §1, with “substrate” for “substrate at 500 uM”
Parameters: species or system Homo sapiens

**Q.** For CC(C)[C@H](NC(=O)[C@@H](N)CCCNC(=N)N)C(=O)N[C@@H](Cc1c[nH]c2ccccc12)C(=O)N[C@@H](Cc1ccccc1)C(=O)O (H-RVWF-OH), which EC50 is on record?
**A.** The EC50 was 104 µM.

**Q.** For CC(C)[C@H](NC(=O)C[C@H](CCCNC(=N)N)NC(=O)[C@@H](N)CCCCN)C(=O)N[C@@H](Cc1c[nH]cn1)C(=O)N[C@@H](Cc1ccccc1)C(N)=O (H-K[β3hR]VHF-NH2), which EC50 is on record?
**A.** Its EC50 is 204 µM.

**Q.** Which EC50 does the source give for CC(=O)N[C@@H](CCCNC(=N)N)C(=O)N[C@H](C(=O)N[C@H](C(=O)N[C@@H](Cc1ccccc1)C(N)=O)[C@@H](C)O)C(C)C (Ac-RVTF-NH2) here?
**A.** The EC50 was 85.7 µM.

**Q.** Which EC50 does the source give for CC(C)[C@H](NC(=O)[C@@H](N)CCCNC(=N)N)C(=O)N[C@H](C(=O)N[C@H](Cc1ccccc1)C(=O)O)[C@@H](C)O (H-RVT[dF]-OH) here?
**A.** Its EC50 is greater than 500 µM.

**Q.** Which EC50 does the source give for CC(C)[C@H](NC(=O)[C@@H](N)CCCNC(=N)N)C(=O)N[C@H](C(=O)N[C@@H](Cc1ccccc1)C(=O)O)[C@@H](C)O (H-RVTF-OH) here?
**A.** The EC50 was 234 µM.

**Q.** With CC(C)[C@H](NC(=O)[C@@H](N)CCCCN)C(=O)N[C@H](C(=O)N[C@@H](Cc1ccccc1)C(=O)O)[C@@H](C)O (H-KVTF-OH) as the compound, how does the EC50 read?
**A.** Its EC50 is greater than 500 µM.

**Q.** For CC(C)[C@H](NC(=O)[C@@H](N)CCCNC(=N)N)C(=O)N[C@H](C(=O)N[C@@H](Cc1ccc(O)cc1)C(=O)O)[C@@H](C)O (H-RVTY-OH), which EC50 is on record?
**A.** Its EC50 is greater than 500 µM.

**Q.** Which EC50 does the source give for CC(C)[C@H](NC(=O)[C@@H](N)CCCNC(=N)N)C(=O)N[C@@H](CCCCN)C(=O)N[C@@H](Cc1ccccc1)C(=O)O (H-RVKF-OH) here?
**A.** The EC50 was 249 µM.

**Q.** Which EC50 does the source give for CC(C)[C@H](NC(=O)[C@H](CCCNC(=N)N)NC(=O)C[C@@H](N)CCCCN)C(=O)N[C@@H](Cc1c[nH]cn1)C(=O)N[C@@H](Cc1ccccc1)C(N)=O (H-[β3hK]RVHF-NH2) here?
**A.** The EC50 was 9.8 µM.

**Q.** With Ac-KRVHF-NH2 as the compound, how does the EC50 read?
**A.** The EC50 was 1.7 µM.

**Q.** Which EC50 does the source give for CC(C)[C@H](NC(=O)[C@H](CCCNC(=N)N)NC(=O)[C@@H](N)CCCCN)C(=O)N[C@@H](Cc1c[nH]cn1)C(=O)N[C@@H](Cc1ccc2ccccc2c1)C(N)=O (H-KRVH[2Nal]-NH2) here?
**A.** The EC50 was 1.5 µM.

**Q.** For CC(C)[C@@H](NC(=O)[C@@H](N)CCCNC(=N)N)C(=O)N[C@H](C(=O)N[C@@H](Cc1ccccc1)C(=O)O)[C@@H](C)O (H-R[dV]TF-OH), which EC50 is on record?
**A.** The EC50 was greater than 500 µM.

**Q.** For CC(C)[C@H](NC(=O)[C@@H](N)CCCNC(=N)N)C(=O)N[C@@H](Cc1cnc[nH]1)C(=O)N[C@@H](Cc1ccccc1)C(=O)O (H-RVHF-OH), which EC50 is on record?
**A.** The EC50 was 69.7 µM.

**Q.** With CC(C)[C@H](NC(=O)[C@@H](N)CCCNC(=N)N)C(=O)N[C@@H](CC(N)=O)C(=O)N[C@@H](Cc1ccccc1)C(=O)O (H-RVNF-OH) as the compound, how does the EC50 read?
**A.** The EC50 was 220 µM.

**Q.** For CC(C)[C@H](NC(=O)[C@H](N)CCCNC(=N)N)C(=O)N[C@H](C(=O)N[C@H](Cc1ccccc1)C(=O)O)[C@@H](C)O (H-[dR]VT[dF]-OH), which EC50 is on record?
**A.** Its EC50 is greater than 500 µM.

**Q.** With H-RRVHF-OH as the compound, how does the EC50 read?
**A.** Its EC50 is 2.7 µM.

**Q.** Which EC50 does the source give for CC(C)[C@H](NC(=O)[C@@H](N)CCCNC(=N)N)C(=O)N[C@@H](Cc1ccccc1)C(=O)N[C@@H](Cc1ccccc1)C(=O)O (H-RVFF-OH) here?
**A.** The EC50 was greater than 500 µM.

**Q.** With Ac-KRVHF-OH as the compound, how does the EC50 read?
**A.** Its EC50 is 3.2 µM.

**Q.** With CC(C)[C@H](NC(=O)[C@@H](N)CCCNC(=N)N)C(=O)N[C@H](C(=O)N[C@@H](Cc1c[nH]c2ccccc12)C(=O)O)[C@@H](C)O (H-RVTW-OH) as the compound, how does the EC50 read?
**A.** The EC50 was 256 µM.

**Q.** Which EC50 does the source give for CC(C)[C@@H](NC(=O)[C@H](N)CCCNC(=N)N)C(=O)N[C@@H](C(=O)N[C@@H](Cc1ccccc1)C(=O)O)[C@H](C)O (H-[dR][dV][dT]F-OH) here?
**A.** The EC50 was greater than 500 µM.

**Q.** With CC(C)[C@H](NC(=O)[C@H](CCCNC(=N)N)NC(=O)[C@H](N)CCCCN)C(=O)N[C@@H](Cc1cnc[nH]1)C(=O)N[C@@H](Cc1ccccc1)C(N)=O as the compound, how does the EC50 read?
**A.** The EC50 was 2.6 µM.

**Q.** Which EC50 does the source give for CC(C)[C@H](NC(=O)[C@@H](N)CCCNC(=N)N)C(=O)N[C@@H](CCC(N)=O)C(=O)N[C@@H](Cc1ccccc1)C(=O)O (H-RVQF-OH) here?
**A.** The EC50 was 224 µM.

**Q.** With CC[C@H](C)[C@H](NC(=O)[C@@H](NC(=O)[C@H](CCC(=O)O)NC(=O)[C@H](C)NC(=O)[C@H](C)NC(=O)[C@H](CCC(=O)O)NC(=O)[C@H](Cc1ccc(C(=O)c2ccccc2)cc1)NC(=O)[C@H](Cc1ccccc1)NC(=O)[C@@H](NC(=O)[C@@H](NC(=O)[C@H](CCCNC(=N)N)NC(=O)[C@H](C)NC(=O)[C@H](CC(N)=O)NC(=O)[C@H](CCCCN)NC(=O)[C@H](CCCNC(=N)N)NC(=O)[C@H](CCCCN)NC(=O)[C@H](CCCNC(=N)N)NC(=O)[C@H](CCCCN)NC(=O)[C@@H]1CCCN1C(=O)[C@H](CCCNC(=N)N)NC(=O)[C@H](CCCCN)NC(=O)[C@H](CCCNC(=N)N)NC(=O)[C@H](CCCNC(=N)N)NC(C)=O)C(C)C)[C@H](C)O)[C@@H](C)CC)C(N)=O as the compound, how does the EC50 read?
**A.** The EC50 was 0.233 µM.

**Q.** With CC(C)[C@H](NC(=O)[C@H](CCCNC(=N)N)NC(=O)[C@@H](N)CCCCN)C(=O)N[C@@H](Cc1cnc[nH]1)C(=O)N[C@@H](Cc1cccc2ccccc12)C(N)=O (H-KRVH[1Nal]-NH2) as the compound, how does the EC50 read?
**A.** The EC50 was 2.5 µM.

**Q.** For CC(C)[C@H](NC(=O)[C@@H](N)CCCNC(=N)N)C(=O)N[C@@H](CO)C(=O)N[C@@H](Cc1ccccc1)C(=O)O (H-RVSF-OH), which EC50 is on record?
**A.** The EC50 was greater than 500 µM.

**Q.** Which EC50 does the source give for CC(C)[C@H](NC(=O)[C@@H](N)CCCNC(=N)N)C(=O)N[C@@H](CC(=O)O)C(=O)N[C@@H](Cc1ccccc1)C(=O)O (H-RVDF-OH) here?
**A.** Its EC50 is greater than 500 µM.

**Q.** For H-KRVHF-OH, which EC50 is on record?
**A.** The EC50 was 1.5 µM.

**Q.** For CC(C)[C@@H](NC(=O)[C@H](NC(=O)[C@H](N)Cc1ccccc1)[C@H](C)O)C(=O)N[C@H](CCCNC(=N)N)C(=O)O (H-[dF][dT][dV][dR]-OH), which EC50 is on record?
**A.** Its EC50 is greater than 500 µM.

**Q.** For CC(C)[C@H](NC(=O)[C@H](N)CCCNC(=N)N)C(=O)N[C@H](C(=O)N[C@@H](Cc1ccccc1)C(=O)O)[C@@H](C)O (H-[dR]VTF-OH), which EC50 is on record?
**A.** The EC50 was greater than 500 µM.

**Q.** With CC(C)[C@H](NC(=O)[C@H](CCCNC(=N)N)NC(=O)[C@@H](N)CCCCN)C(=O)N[C@@H](Cc1cnc[nH]1)C(=O)N[C@@H](CC1CCCCC1)C(N)=O (H-KRVH[Cha]-NH2) as the compound, how does the EC50 read?
**A.** Its EC50 is 52.5 µM.

**Q.** With CC(C)[C@H](NC(=O)[C@H](CCCNC(=N)N)NC(=O)[C@@H](N)CCCCNC(=N)N)C(=O)N[C@@H](Cc1cnc[nH]1)C(=O)N[C@@H](Cc1ccccc1)C(N)=O (H-[hArg]RVHF-NH2) as the compound, how does the EC50 read?
**A.** Its EC50 is 6.6 µM.

**Q.** Which EC50 does the source give for CC(C)[C@H](NC(=O)[C@H](CCCNC(=N)N)NC(=O)[C@@H](N)CCCCN)C(=O)N[C@@H](Cc1c[nH]cn1)C(=O)N(C)[C@@H](Cc1ccccc1)C(N)=O (H-KRVH[NMeF]-NH2) here?
**A.** The EC50 was 23.5 µM.

**Q.** With CC(C)[C@H](NC(=O)[C@@H](N)CCCNC(=N)N)C(=O)N[C@@H](C(=O)N[C@@H](Cc1ccccc1)C(=O)O)[C@H](C)O (H-RV[dT]F-OH) as the compound, how does the EC50 read?
**A.** Its EC50 is greater than 500 µM.

**Q.** For CC(C)[C@H](NC(=O)[C@@H](N)CCCNC(=N)N)C(=O)N[C@H](C(=O)N[C@@H](Cc1ccccc1)C(N)=O)[C@@H](C)O (H-RVTF-NH2), which EC50 is on record?
**A.** Its EC50 is 101 µM.

**Q.** Which EC50 does the source give for CC(=O)N[C@@H](CCCNC(=N)N)C(=O)N[C@H](C(=O)N[C@H](C(=O)N[C@@H](Cc1ccccc1)C(=O)O)[C@@H](C)O)C(C)C (Ac-RVTF-OH) here?
**A.** Its EC50 is greater than 500 µM.

**Q.** Which EC50 does the source give for CC(C)[C@H](NC(=O)[C@@H](NC(=O)[C@@H](N)Cc1ccccc1)[C@@H](C)O)C(=O)N[C@@H](CCCNC(=N)N)C(=O)O (H-FTVR-OH) here?
**A.** The EC50 was greater than 500 µM.

**Q.** With H-KHVHF-NH2 as the compound, how does the EC50 read?
**A.** The EC50 was 24.6 µM.
